Laboratory results: PubChem BioAssay (NCI)
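Tested at 5 concentrations; 48 h exposure; 96-well plates; endpoints linearly interpolated, else capped at highest concentration. GI50 is the concentration that inhibits growth by half. TGI denotes the concentration required for complete inhibition of growth.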

Key:
Assay in all cases: NCI anticancer screen, dose series, 48 h
LOX IMVI melanoma = system: LOX IMVI melanoma
SK-MEL-5 melanoma = system: SK-MEL-5 melanoma
HL-60(TB) leukemia = system: HL-60(TB) leukemia
BT-549 breast = system: BT-549 breast
NCI-H522 lung = system: NCI-H522 lung
MOLT-4 leukemia = system: MOLT-4 leukemia
HT29 colon = system: HT29 colon
SK-MEL-28 melanoma = system: SK-MEL-28 melanoma
SW-620 colon = system: SW-620 colon
OVCAR-3 ovarian = system: OVCAR-3 ovarian
M14 melanoma = system: M14 melanoma
K-562 leukemia = system: K-562 leukemia
SF-539 CNS = system: SF-539 CNS
UACC-62 melanoma = system: UACC-62 melanoma
DU-145 prostate = system: DU-145 prostate
HS 578T breast = system: HS 578T breast
OVCAR-5 ovarian = system: OVCAR-5 ovarian
UO-31 renal = system: UO-31 renal
UACC-257 melanoma = system: UACC-257 melanoma
HOP-92 NSCLC = system: HOP-92 NSCLC
OVCAR-8 ovarian = system: OVCAR-8 ovarian
NCI-H460 lung = system: NCI-H460 lung
COLO 205 colon = system: COLO 205 colon
CCRF-CEM leukemia = system: CCRF-CEM leukemia
A498 renal = system: A498 renal
HCC-2998 colon = system: HCC-2998 colon
MALME-3M melanoma = system: MALME-3M melanoma
SK-OV-3 ovarian = system: SK-OV-3 ovarian
786-0 renal = system: 786-0 renal
HCT-15 colon = system: HCT-15 colon
RXF 393 renal = system: RXF 393 renal
NCI-H23 lung = system: NCI-H23 lung
SNB-19 CNS = system: SNB-19 CNS
TK-10 renal = system: TK-10 renal
CAKI-1 renal = system: CAKI-1 renal
PC-3 prostate = system: PC-3 prostate
SF-295 CNS = system: SF-295 CNS
MCF7 breast = system: MCF7 breast
IGROV1 ovarian = system: IGROV1 ovarian
SN12C renal = system: SN12C renal
HCT-116 colon = system: HCT-116 colon
A549 NSCLC = system: A549 NSCLC
T-47D breast = system: T-47D breast
SNB-75 CNS = system: SNB-75 CNS
NCI/ADR-RES ovarian = system: NCI/ADR-RES ovarian
KM12 colon = system: KM12 colon
U251 CNS = system: U251 CNS
SK-MEL-2 melanoma = system: SK-MEL-2 melanoma
HOP-62 NSCLC = system: HOP-62 NSCLC
SR leukemia = system: SR leukemia
SF-268 CNS = system: SF-268 CNS

For `COc1cc(/C=C2\CCC/C(=C\c3ccc(OCC4CO4)c(OC)c3)C2=O)ccc1OCC1CO1` (configuration not stated), the GI50 (LOX IMVI melanoma) was 1.23 µM, the TGI (LOX IMVI melanoma) was 3.78 µM and the GI50 (SK-MEL-5 melanoma) was 1.74 µM. The TGI (SK-MEL-5 melanoma) was 3.52 µM, the GI50 (HL-60(TB) leukemia) was 3.59 µM and the TGI (HL-60(TB) leukemia) was over 100 µM. It also gave a GI50 (BT-549 breast) of 2.28 µM, a TGI (BT-549 breast) of 5.3 µM and a GI50 (NCI-H522 lung) of 2.47 µM. The TGI (NCI-H522 lung) was 6 µM, the GI50 (MOLT-4 leukemia) was 2.91 µM and the TGI (MOLT-4 leukemia) was 34.1 µM. For the same molecule, the GI50 (HT29 colon) was 2.25 µM, the TGI (HT29 colon) was 4.62 µM and the GI50 (SK-MEL-28 melanoma) was 1.81 µM. It also gave a TGI (SK-MEL-28 melanoma) of 3.43 µM, a GI50 (SW-620 colon) of 2.46 µM and a TGI (SW-620 colon) of 5.09 µM. For the same molecule, the GI50 (OVCAR-3 ovarian) was 2.44 µM, the TGI (OVCAR-3 ovarian) was 6.23 µM and the GI50 (M14 melanoma) was 1.94 µM. For the same molecule, the TGI (M14 melanoma) was 3.99 µM, the GI50 (K-562 leukemia) was 3.46 µM and the TGI (K-562 leukemia) was over 100 µM. The GI50 (SF-539 CNS) was 2.4 µM, the TGI (SF-539 CNS) was 6.78 µM and the GI50 (UACC-62 melanoma) was 2.02 µM. It also gave a TGI (UACC-62 melanoma) of 4.8 µM, a GI50 (DU-145 prostate) of 3.06 µM and a TGI (DU-145 prostate) of 15.8 µM. It also gave a GI50 (HS 578T breast) of 4.22 µM, a TGI (HS 578T breast) of over 100 µM and a GI50 (OVCAR-5 ovarian) of 2.87 µM. For the same molecule, the TGI (OVCAR-5 ovarian) was 10.6 µM, the GI50 (UO-31 renal) was 2.51 µM and the TGI (UO-31 renal) was 7.94 µM. The GI50 (UACC-257 melanoma) was 1.82 µM, the TGI (UACC-257 melanoma) was 3.91 µM and the GI50 (HOP-92 NSCLC) was 3.3 µM. The TGI (HOP-92 NSCLC) was over 100 µM, the GI50 (OVCAR-8 ovarian) was 2.1 µM and the TGI (OVCAR-8 ovarian) was 9.11 µM. It also gave a GI50 (NCI-H460 lung) of 2.37 µM, a TGI (NCI-H460 lung) of 5.59 µM and a GI50 (COLO 205 colon) of 2 µM. It also gave a TGI (COLO 205 colon) of 3.54 µM, a GI50 (CCRF-CEM leukemia) of 2.5 µM and a TGI (CCRF-CEM leukemia) of over 100 µM. It also gave a GI50 (A498 renal) of 3.62 µM, a TGI (A498 renal) of 10.1 µM and a GI50 (HCC-2998 colon) of 2.25 µM. For the same molecule, the TGI (HCC-2998 colon) was 4.75 µM, the GI50 (MALME-3M melanoma) was 1.95 µM and the TGI (MALME-3M melanoma) was 4.56 µM. The GI50 (SK-OV-3 ovarian) was 3.54 µM, the TGI (SK-OV-3 ovarian) was 10.7 µM and the GI50 (786-0 renal) was 2.04 µM. The TGI (786-0 renal) was 3.85 µM, the GI50 (HCT-15 colon) was 2.04 µM and the TGI (HCT-15 colon) was 4.59 µM. For the same molecule, the GI50 (RXF 393 renal) was 1.6 µM, the TGI (RXF 393 renal) was 3.05 µM and the GI50 (NCI-H23 lung) was 2.8 µM. The TGI (NCI-H23 lung) was 9.71 µM, the GI50 (SNB-19 CNS) was 4.73 µM and the TGI (SNB-19 CNS) was 76.4 µM. It also gave a GI50 (TK-10 renal) of 4.04 µM, a TGI (TK-10 renal) of 17.6 µM and a GI50 (CAKI-1 renal) of 3.3 µM. It also gave a TGI (CAKI-1 renal) of over 100 µM, a GI50 (PC-3 prostate) of 3.13 µM and a TGI (PC-3 prostate) of 45.7 µM. The GI50 (SF-295 CNS) was 4.35 µM, the TGI (SF-295 CNS) was 84.4 µM and the GI50 (MCF7 breast) was 2.02 µM. The TGI (MCF7 breast) was 7.32 µM, the GI50 (IGROV1 ovarian) was 2.87 µM and the TGI (IGROV1 ovarian) was 7.07 µM. For the same molecule, the GI50 (SN12C renal) was 2.84 µM, the TGI (SN12C renal) was 8.71 µM and the GI50 (HCT-116 colon) was 1.85 µM. The TGI (HCT-116 colon) was 6.01 µM, the GI50 (A549 NSCLC) was 2.14 µM and the TGI (A549 NSCLC) was 5.09 µM. For the same molecule, the GI50 (T-47D breast) was 2.98 µM, the TGI (T-47D breast) was 12.2 µM and the GI50 (SNB-75 CNS) was 2.92 µM. It also gave a TGI (SNB-75 CNS) of 19.1 µM, a GI50 (NCI/ADR-RES ovarian) of 4.86 µM and a TGI (NCI/ADR-RES ovarian) of over 100 µM. It also gave a GI50 (KM12 colon) of 1.88 µM, a TGI (KM12 colon) of 5.13 µM and a GI50 (U251 CNS) of 2.11 µM. For the same molecule, the TGI (U251 CNS) was 5.27 µM, the GI50 (SK-MEL-2 melanoma) was 2.43 µM and the TGI (SK-MEL-2 melanoma) was 5.37 µM. For the same molecule, the GI50 (HOP-62 NSCLC) was 3.38 µM, the TGI (HOP-62 NSCLC) was 9.59 µM and the GI50 (SR leukemia) was 2.29 µM. The TGI (SR leukemia) was over 100 µM, the GI50 (SF-268 CNS) was 2.62 µM and the TGI (SF-268 CNS) was 8.41 µM.
